From PubChem BioAssay (NCI)
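Exposure lasted 48 hours, with cells grown in 96-well plates and compounds tested at five concentrations. The concentration for full growth arrest is given as TGI.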

Key:
Test in all cases: NCI-60 cell line screen, 48 h
[1] = tested on: HCT-15 colon
[2] = tested on: IGROV1 ovarian
[3] = tested on: TK-10 renal
[4] = tested on: SF-295 CNS
[5] = tested on: LOX IMVI melanoma
[6] = tested on: UO-31 renal
[7] = tested on: SK-MEL-28 melanoma
[8] = tested on: OVCAR-4 ovarian
[9] = tested on: SNB-75 CNS
[10] = tested on: UACC-62 melanoma
[11] = tested on: MOLT-4 leukemia
[12] = tested on: A498 renal
[13] = tested on: KM12 colon
[14] = tested on: RPMI-8226 leukemia
[15] = tested on: CCRF-CEM leukemia
[16] = tested on: OVCAR-8 ovarian
[17] = tested on: HT29 colon
[18] = tested on: NCI-H522 lung
[19] = tested on: HCC-2998 colon
[20] = tested on: SNB-19 CNS
[21] = tested on: NCI-H460 lung
[22] = tested on: DMS 273 small cell lung
[23] = tested on: K-562 leukemia
[24] = tested on: RXF-631 renal
[25] = tested on: SK-MEL-5 melanoma
[26] = tested on: OVCAR-3 ovarian
[27] = tested on: CAKI-1 renal
[28] = tested on: U251 CNS
[29] = tested on: M19-MEL melanoma
[30] = tested on: 786-0 renal
[31] = tested on: SN12C renal
[32] = tested on: A549 NSCLC
[33] = tested on: SF-268 CNS
[34] = tested on: SW-620 colon
[35] = tested on: DLD-1 colon
[36] = tested on: OVCAR-5 ovarian
[37] = tested on: EKVX NSCLC
[38] = tested on: KM20L2 colon
[39] = tested on: ACHN renal
[40] = tested on: HOP-92 NSCLC
[41] = tested on: RXF 393 renal
[42] = tested on: LXFL 529 NSCLC
[43] = tested on: HL-60(TB) leukemia
[44] = tested on: XF 498 CNS
[45] = tested on: COLO 205 colon
[46] = tested on: M14 melanoma
[47] = tested on: UACC-257 melanoma
[48] = tested on: SF-539 CNS
[49] = tested on: SK-OV-3 ovarian
[50] = tested on: NCI-H23 lung
[51] = tested on: HOP-18 NSCLC
[52] = tested on: MALME-3M melanoma
[53] = tested on: SK-MEL-2 melanoma
[54] = tested on: DMS 114 small cell lung
[55] = tested on: HCT-116 colon
[56] = tested on: HOP-62 NSCLC
[57] = tested on: NCI-H226 lung
[58] = tested on: SR leukemia
[59] = tested on: SNB-78 CNS

CN(CC(=O)O)S(=O)(=O)c1ccc(F)cc1
TGI [1]: > 100 µM | TGI [2]: > 100 µM | TGI [3]: > 100 µM | TGI [4]: > 100 µM | TGI [5]: > 100 µM | TGI [6]: > 100 µM | TGI [7]: > 100 µM | TGI [8]: > 100 µM | TGI [9]: > 100 µM | TGI [10]: > 100 µM | TGI [11]: > 100 µM | TGI [12]: > 100 µM | TGI [13]: > 100 µM | TGI [14]: > 100 µM | TGI [15]: > 100 µM | TGI [16]: > 100 µM | TGI [17]: > 100 µM | TGI [18]: > 100 µM | TGI [19]: > 100 µM | TGI [20]: > 100 µM | TGI [21]: > 100 µM | TGI [22]: > 100 µM | TGI [23]: > 100 µM | TGI [24]: > 100 µM | TGI [25]: > 100 µM | TGI [26]: > 100 µM | TGI [27]: > 100 µM | TGI [28]: > 100 µM | TGI [29]: > 100 µM | TGI [30]: > 100 µM | TGI [31]: > 100 µM | TGI [32]: > 100 µM | TGI [33]: > 100 µM | TGI [34]: > 100 µM | TGI [35]: > 100 µM | TGI [36]: > 100 µM | TGI [37]: > 100 µM | TGI [38]: > 100 µM | TGI [39]: > 100 µM | TGI [40]: > 100 µM | TGI [41]: > 100 µM | TGI [42]: > 100 µM | TGI [43]: > 100 µM | TGI [44]: > 100 µM | TGI [45]: > 100 µM | TGI [46]: > 100 µM | TGI [47]: > 100 µM | TGI [48]: > 100 µM | TGI [49]: > 100 µM | TGI [50]: > 100 µM | TGI [51]: > 100 µM | TGI [52]: > 100 µM | TGI [53]: > 100 µM

Cc1c(Cl)ccc2c1NC(=O)C2(O)CC(=O)c1ccc2ccccc2c1 (configuration not stated)
TGI [1]: > 100 µM | TGI [2]: > 100 µM | TGI [3]: > 100 µM | TGI [54]: 58.4 µM | TGI [4]: > 100 µM | TGI [5]: > 100 µM | TGI [6]: > 100 µM | TGI [55]: > 100 µM | TGI [7]: > 100 µM | TGI [8]: > 100 µM | TGI [9]: 54.2 µM | TGI [10]: > 100 µM | TGI [11]: 89.5 µM | TGI [12]: > 100 µM | TGI [13]: > 100 µM | TGI [14]: 46.7 µM | TGI [56]: > 100 µM | TGI [15]: > 100 µM | TGI [16]: > 100 µM | TGI [57]: > 100 µM | TGI [17]: > 100 µM | TGI [18]: 61.7 µM | TGI [19]: > 100 µM | TGI [20]: > 100 µM | TGI [21]: > 100 µM | TGI [23]: > 100 µM | TGI [24]: > 100 µM | TGI [26]: > 100 µM | TGI [27]: > 100 µM | TGI [28]: > 100 µM | TGI [30]: > 100 µM | TGI [31]: > 100 µM | TGI [32]: > 100 µM | TGI [33]: > 100 µM | TGI [34]: > 100 µM | TGI [35]: > 100 µM | TGI [36]: > 100 µM | TGI [37]: > 100 µM | TGI [38]: > 100 µM | TGI [39]: > 100 µM | TGI [40]: > 100 µM | TGI [41]: 88.9 µM | TGI [44]: > 100 µM | TGI [45]: > 100 µM | TGI [46]: > 100 µM | TGI [47]: > 100 µM | TGI [48]: > 100 µM | TGI [49]: > 100 µM | TGI [50]: > 100 µM | TGI [51]: > 100 µM | TGI [52]: > 100 µM | TGI [53]: > 100 µM

Cc1ccccc1OCC(COC(=O)Nc1ccccc1)OC(=O)Nc1ccccc1 (configuration not stated)
TGI [1]: > 100 µM | TGI [2]: > 100 µM | TGI [3]: > 100 µM | TGI [54]: > 100 µM | TGI [4]: > 100 µM | TGI [5]: 55.9 µM | TGI [6]: > 100 µM | TGI [55]: > 100 µM | TGI [58]: > 100 µM | TGI [7]: > 100 µM | TGI [8]: > 100 µM | TGI [9]: 38.3 µM | TGI [10]: > 100 µM | TGI [11]: > 100 µM | TGI [12]: > 100 µM | TGI [13]: > 100 µM | TGI [14]: > 100 µM | TGI [56]: > 100 µM | TGI [15]: > 100 µM | TGI [16]: > 100 µM | TGI [57]: > 100 µM | TGI [17]: > 100 µM | TGI [18]: > 100 µM | TGI [19]: > 100 µM | TGI [20]: 89.4 µM | TGI [21]: > 100 µM | TGI [22]: > 100 µM | TGI [23]: 27.8 µM | TGI [24]: > 100 µM | TGI [25]: > 100 µM | TGI [26]: > 100 µM | TGI [27]: > 100 µM | TGI [28]: > 100 µM | TGI [29]: > 100 µM | TGI [31]: > 100 µM | TGI [32]: > 100 µM | TGI [33]: > 100 µM | TGI [34]: > 100 µM | TGI [35]: > 100 µM | TGI [36]: > 100 µM | TGI [37]: > 100 µM | TGI [38]: > 100 µM | TGI [39]: > 100 µM | TGI [40]: 38.5 µM | TGI [41]: 43.5 µM | TGI [42]: > 100 µM | TGI [43]: 68.7 µM | TGI [45]: > 100 µM | TGI [46]: > 100 µM | TGI [47]: > 100 µM | TGI [48]: 15.4 µM | TGI [49]: > 100 µM | TGI [50]: > 100 µM | TGI [59]: 79 µM | TGI [51]: 86.6 µM | TGI [52]: > 100 µM | TGI [53]: > 100 µM
